Like-named read-outs stand apart in the source and are kept apart here. No end group written: not given here.
Legend:
E. coli ATCC 25922 = type: cell-based, Escherichia coli
Procedure: (§1) To gain additional insight, we also compared the effects of physiological saline and human serum on the antibacterial activities of WW291-WW298 using both E. coli and S. aureus (Table 3). In our assays, salts and serum were present during the entire course of the experiment. […] Thus, WW295 and WW298 stand out in terms of activity robustness (bold in Table 3).
(§2) The antibacterial activity of peptides was evaluated using a standard broth microdilution protocol with minor modifications as previously described. In brief, logarithmic phase bacterial cultures (i.e., optical density at 600 nm ≈ 0.5) were diluted to OD600~0.001 and partitioned into a 96-well polystyrene microplate at 90 μL per well. After treatment with 10 μL of peptide solutions two-fold diluted to various concentrations, microplates were incubated at 37 °C overnight and read on a ChroMate 4300 Microplate Reader at 630 nm (GMI, Ramsey, MN). […] Minimal bactericidal concentration (MBC) was determined by plating the clear wells at MIC or above. The peptide concentration that caused no bacterial growth on the petri dish is MBC.

[1] = system: monkey kidney Vero E6 cells; type: cell-based
Procedure: Peptides were assayed for potential in vitro toxicity against human keratinocytes (HaCaT) and THP-1 cells as previously described. THP-1 monocytes were differentiated into macrophages by adding 30 ng/mL of phorbol 12-myristate 13-acetate (PMA; Sigma-Aldrich) to RPMI 1640 supplemented with 10% fetal calf serum culture (FCS) medium for 16 h. Briefly, cells were seeded at a density of 3 × 10^4 per well in a tissue culture 96-well plate in DMEM/RPMI supplemented with 10% fetal bovine serum (FBS), and incubated at 37 °C in a 5% CO2 atmosphere for 24 h. African green monkey kidney Vero E6 cells were cultivated in EMEM in the same manner. Before antimicrobial treatment, wells were replaced with serum free media and treated with peptides at different concentrations for one hour. After incubation, the cells were washed and incubated with 100 μL of DMEM media containing 20 μL of 3-(4,5-dimethylthiazol-2-yl)-5-(3-carboxymethoxyphenyl)-2-(4-sulfophenyl)-2H-tetrazolium (MTS) reagent for two hours at 37 °C. […] Absorbance readings at 492 nm were taken using a ChroMate microplate reader (GMI, Ramsey, MN, USA).

B. subtilis 167 = type: cell-based, Bacillus subtilis
Procedure: (§3) The antimicrobial activity spectrum of the WW peptide series was performed on a panel of Gram-positive and -negative bacteria using the standard broth micro-dilution method with minor modifications as described. […] There was a small change in the case of Pseudomonas aeruginosa and Acinetobacter baumannii up to two-fold. Four-fold changes were found for Staphylococcus aureus, Staphylococcus epidermidis, Escherichia coli, and Bacillus subtilis. However, we observed over eight-fold MIC changes for Klebsiella pneumoniae and vancomycin-resistant enterococcus (VRE). […] We also observed more than eight-fold changes in minimal bacterial killing concentrations.
as §2

S. aureus Mu50 = type: cell-based, Staphylococcus aureus
Procedure: as §3, §2

[2] = system: human keratinocytes (HaCaT); test: MTS cytotoxicity assay; type: cell-based; conditions: serum free media, one hour treatment
Procedure: (§4) Peptides were assayed for potential in vitro toxicity against human keratinocytes (HaCaT) and THP-1 cells as previously described. THP-1 monocytes were differentiated into macrophages by adding 30 ng/mL of phorbol 12-myristate 13-acetate (PMA; Sigma-Aldrich) to RPMI 1640 supplemented with 10% fetal calf serum culture (FCS) medium for 16 h. Briefly, cells were seeded at a density of 3 × 10^4 per well in a tissue culture 96-well plate in DMEM/RPMI supplemented with 10% fetal bovine serum (FBS), and incubated at 37 °C in a 5% CO2 atmosphere for 24 h. African green monkey kidney Vero E6 cells were cultivated in EMEM in the same manner. Before antimicrobial treatment, wells were replaced with serum free media and treated with peptides at different concentrations for one hour. After incubation, the cells were washed and incubated with 100 μL of DMEM media containing 20 μL of 3-(4,5-dimethylthiazol-2-yl)-5-(3-carboxymethoxyphenyl)-2-(4-sulfophenyl)-2H-tetrazolium (MTS) reagent for two hours at 37 °C. The treatment time was one hour in the case of Vero E6 cells. Absorbance readings at 492 nm were taken using a ChroMate microplate reader (GMI, Ramsey, MN, USA).

[3] = system: PMA differentiated THP-1 cells; test: MTS cytotoxicity assay; type: cell-based; conditions: PMA differentiated THP-1, serum free media, one hour treatment
Procedure: as §4

E. coli K12 = type: cell-based, Escherichia coli
Procedure: as §3, §2

S. aureus USA300 = type: cell-based, Staphylococcus aureus
Procedure: as §2

S. aureus USA300 LAC = type: cell-based, Staphylococcus aureus
Procedure: as §1, §2

P. aeruginosa PAO1 = type: cell-based, Pseudomonas aeruginosa
Procedure: as §3, §2

A. baumannii B28-16 = type: cell-based, Acinetobacter baumannii
Procedure: as §3, §2

chicken red blood cells = test: Hemolytic assay; type: cell-based
Procedure: (§5) Hemolytic assays of peptides were performed as previously described. Briefly, human red blood cells (hRBCs) obtained from UNMC Blood Bank, or chicken or porcine blood cells purchased from commercial sources as previously described, were washed three times with phosphate buffer saline (PBS) and diluted to a 2% solution (V/v). After peptide treatment, incubation at 37 °C for one hour, and centrifugation at 13,000 rpm, aliquots of the supernatant were carefully transferred to a fresh 96-well microplate. The amount of hemoglobin released was measured at 545 nm. The percent lysis was calculated by assuming 100% release when human blood cells were treated with 2% Triton X-100, and 0% release when incubated with PBS buffer. The peptide concentration that caused 50% lysis of hRBCs is defined as HC50.

human red blood cells = test: Hemolytic assay; type: cell-based
Procedure: as §5

Pig RBC = test: Hemolytic assay; type: cell-based
Procedure: as §5

E. faecium VRE = type: cell-based
Procedure: as §3, §2

[4] = 2% RBC in PBS, 37 °C, one hour, hemoglobin at 545 nm

Sequence	MIC, +150 mM NaCl (E. coli ATCC 25922; ATCC 25922) [µM]	MIC, +10% Human Serum (E. coli ATCC 25922; ATCC 25922) [µM]	MIC, TSB (E. coli ATCC 25922; ATCC 25922) [µM]	Vero Cells, concentration that caused 50% cell death (LC50) [1] [µM]	Minimal Inhibitory Concentration (MIC), BS (B. subtilis 167; 167) [µM]	Minimal Inhibitory Concentration (MIC), SA (S. aureus Mu50; Mu50) [µM]	HaCaT, concentration that caused 50% cell death (LC50) [2] [µM]	THP-1, concentration that caused 50% cell death (LC50) [3] [µM]	Minimal Inhibitory Concentration (MIC), EC (E. coli K12; K12) [µM]	MBC, USA300 (S. aureus USA300; USA300) [µM]	MIC, +150 mM NaCl (S. aureus USA300 LAC; USA300) [µM]	MIC, +10% Human Serum (S. aureus USA300 LAC; USA300) [µM]	MIC, TSB (S. aureus USA300 LAC; USA300) [µM]	Minimal Inhibitory Concentration (MIC), PA (P. aeruginosa PAO1; PAO1) [µM]	Minimal Inhibitory Concentration (MIC), AB (A. baumannii B28-16; B28-16) [µM]	Chicken RBC, concentration that caused 50% red blood cell lysis (HC50) (chicken red blood cells) [µM]	Human RBC, concentration that caused 50% red blood cell lysis (HC50) (human red blood cells; red cells of human) [µM]	Pig RBC, concentration that caused 50% red blood cell lysis (HC50) (Pig RBC) [µM]	Minimal Inhibitory Concentration (MIC), VRE (E. faecium VRE; VRE) [µM]	further results
WLRKIWWW [WW293]	>25	>25	12.5	>100	12.5	12.5	>100	>100	12.5 to 25	25	6.2	>25	6.2	50	12.5	>100	224	>100	50	–
IWWWWLRK [WW297]	–	–	–	–	–	–	100	38	–	–	–	–	–	–	–	–	–	–	–	MIC, TSB (E. coli ATCC 25922; E. coli ATCC 25922, TSB): 12.5 µM; MIC, +150 mM NaCl (E. coli ATCC 25922; E. coli ATCC 25922, TSB +150 mM NaCl, present during entire experiment): 12.5 µM; MIC, +10% Human Serum (E. coli ATCC 25922; E. coli ATCC 25922, TSB +10% human serum, present during entire experiment): >25 µM; Vero Cells, concentration that caused 50% cell death (LC50) ([1]; Vero E6, serum free media, one hour treatment, MTS assay): >100 µM; Minimal Inhibitory Concentration (MIC), BS (B. subtilis 167; B. subtilis 167, broth microdilution, 37 °C overnight): 12.5 µM; Minimal Inhibitory Concentration (MIC), SA (S. aureus Mu50; S. aureus Mu50, broth microdilution, 37 °C overnight): 6.2 µM; Minimal Inhibitory Concentration (MIC), EC (E. coli K12; E. coli K12, broth microdilution, 37 °C overnight): 12.5 to 25 µM; MBC, USA300 (S. aureus USA300; S. aureus USA300, minimal bactericidal concentration, plating clear wells at MIC or above): 12.5 µM; MIC, TSB (S. aureus USA300 LAC; S. aureus USA300 LAC, TSB): 3.1 µM; MIC, +150 mM NaCl (S. aureus USA300 LAC; S. aureus USA300 LAC, TSB +150 mM NaCl, present during entire experiment): 3.1 µM; MIC, +10% Human Serum (S. aureus USA300 LAC; S. aureus USA300 LAC, TSB +10% human serum, present during entire experiment): 25 µM; Minimal Inhibitory Concentration (MIC), PA (P. aeruginosa PAO1; P. aeruginosa PAO1, broth microdilution, 37 °C overnight): 50 µM; Minimal Inhibitory Concentration (MIC), AB (A. baumannii B28-16; A. baumannii B28-16, broth microdilution, 37 °C overnight): 6.25 to 12.5 µM; Chicken RBC, concentration that caused 50% red blood cell lysis (HC50) (chicken red blood cells; [4]): 100 µM; Human RBC, concentration that caused 50% red blood cell lysis (HC50) (human red blood cells; [4]): 134 µM; Pig RBC, concentration that caused 50% red blood cell lysis (HC50) (Pig RBC; [4]): 110 µM; Minimal Inhibitory Concentration (MIC), VRE (E. faecium VRE; E. faecium VRE, broth microdilution, 37 °C overnight): 12.5 µM
LRKIWWWW [WW294]	25	>25	12.5	>100	25	12.5	>100	>100	12.5	25	6.2	25	6.2	50	12.5	>100	143	>100	25	–
